Measured values taken from US7045316B2, “Transporter genes OATP-B,C,D, and E” (Chugai Seiyaku Kabushiki Kaisha, priority 1999, dated 2006).
Read-outs that look alike come from different tables or passages of the source.

Target: T1, OATP-C protein (Homo sapiens, UniProt Q9Y6L6)
T1 sequence (Q9Y6L6 1-691): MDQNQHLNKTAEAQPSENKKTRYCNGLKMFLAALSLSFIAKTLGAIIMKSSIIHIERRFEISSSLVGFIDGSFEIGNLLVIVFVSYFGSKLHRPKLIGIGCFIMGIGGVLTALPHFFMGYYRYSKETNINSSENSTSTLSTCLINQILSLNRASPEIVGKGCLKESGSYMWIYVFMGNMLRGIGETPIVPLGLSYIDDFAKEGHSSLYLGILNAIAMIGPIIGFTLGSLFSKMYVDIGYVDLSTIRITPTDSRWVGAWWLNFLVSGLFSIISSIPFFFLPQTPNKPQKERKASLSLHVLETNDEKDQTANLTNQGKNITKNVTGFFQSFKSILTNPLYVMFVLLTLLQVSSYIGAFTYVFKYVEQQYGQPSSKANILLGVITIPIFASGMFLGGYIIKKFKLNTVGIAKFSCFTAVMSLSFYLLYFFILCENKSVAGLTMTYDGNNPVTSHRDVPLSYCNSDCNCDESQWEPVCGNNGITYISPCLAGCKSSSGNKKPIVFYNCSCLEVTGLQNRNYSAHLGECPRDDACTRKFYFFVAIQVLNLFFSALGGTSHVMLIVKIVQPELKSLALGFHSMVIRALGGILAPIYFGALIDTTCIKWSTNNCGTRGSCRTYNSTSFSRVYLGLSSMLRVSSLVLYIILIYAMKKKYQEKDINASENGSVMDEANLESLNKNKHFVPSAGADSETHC
Test: Transport experiment: uptake of labeled substrates into HEK293 cells transfected with OATP-C
Experimental: The human fetal kidney-derived cell strain, HEK 293 cells, were transfected with the plasmid pcDNA3/OATP-C or the pcDNA3 vector containing no insert as a control (mock) by the calcium phosphate method. Specifically, the plasmid DNA (10 μg), a Hepes buffer solution (137 mM NaCl 5 mM KCl, 0.7 mM Na2HPO4, 6 mM dextrose, and 21 mM Hepes pH 7.1) (1 ml), and 2 M CaCl2 (62.5 μl) were mixed and the resultant mixture was allowed to stand at room temperature for 30 min or more to form calcium phosphate coprecipitates. After the cells were plated on 10-cm diameter plates at a concentration of 1.5×10^6 cells per plate, and the cells were cultured for 24 h. The above-described calcium phosphate coprecipitates were added thereto, and the cells were further cultured for 24 h. Then, plates were washed with phosphate buffered saline (PBS), and after the addition of fresh culture medium, the cells were further cultured for 24 h.
Transport experiment was performed using the cells transfected with the plasmid DNA according to the following procedures. The cells were detached from the plates using a rubber policeman, suspended in a transport buffer (containing 125 mM NaCl, 4.8 mM KCl, 5.6 mM (+)-glucose, 1.2 mM CaCl2, 1.2 mM KH2PO4, 1.2 mM MgSO4, and 25 mM Hepes pH 7.4), and pre-incubated for 20 min. […] Incubated cells were overlaid on a silicon layer formed by laying a mixture of silicon oil and liquid paraffin (specific gravity=1.022) on a 3 M KCl layer, and separated by centrifugation. Radioactivity of cells was measured to determine the into-the-cell transport activity. In this case, 1×10^6 cells were used as one point of cells.
Herein, the culture of HEK 293 cells was performed using Dulbecco's MEM containing 10% FCS (fetal calf serum) as the culture medium in an atmosphere of 5% carbon dioxide at 37° C.

[1] = HEK293 cells expressing OATP-C vs mock, labeled substrate, 37° C. (FIG. 3)

Compound	into-the-cell transport activity [1]	alteration of transport mediated by OATP-C protein (chloride ion substituted with gluconate (FIG. 6))	alteration of transport mediated by OATP-C protein (sodium ion replaced with N-methylglucamine (FIG. 6))	into-the-cell transport activity
C[C@]12CC[C@@H]3c4ccc(O)cc4CC[C@H]3[C@@H]1CC[C@@H]2O[C@@H]1O[C@H](C(=O)O)[C@@H](O)[C@H](O)[C@H]1O [estradiol-17β-glucuronide]	transport was obviously observed	No alteration	No alteration	
C[C@]12CC[C@@H]3c4ccc(OS(=O)(=O)O)cc4CC[C@H]3[C@@H]1CCC2=O [estron-3-sulfate]	transport was obviously observed			
CN(Cc1cnc2nc(N)nc(N)c2n1)c1ccc(C(=O)N[C@@H](CCC(=O)O)C(=O)O)cc1 [methotrexate]				weak transport activity
C[C@@H]1O[C@@H](O[C@H]2C[C@@H](O)[C@]3(CO)[C@H]4[C@H](O)C[C@]5(C)[C@@H](C6=CC(=O)OC6)CC[C@]5(O)[C@@H]4CC[C@]3(O)C2)[C@H](O)[C@H](O)[C@H]1O [ouabain]	weak transport activity			
CCCCC[C@H](O)/C=C/[C@H]1[C@H](O)CC(=O)[C@@H]1C/C=C\CCCC(=O)O [prostaglandin E2]	weak transport activity			
